The text below walks through data of patent US7659293B2, “α-Amino-N-hydroxy-acetamide derivatives” (Novartis AG, priority 2001, dated 2010).

Molecules are shown by their SMILES. Where a name gives a salt, the structure may show the parent alone.

The target of the assay is T1, MMP9 (Gelatinase-B) (Homo sapiens, UniProt P14780).
T1 construct: endogenous in cells; host or cells: THP1 human monocytic leukemia cells, TPA-stimulated; purified from culture medium
Put plainly: Assay of MMP9 (fluorogenic peptide). It is filed as biochemical. To be noted: mean ± SEM of three independent experiments. Here is the method:
MMP9 is prepared form the culture medium of THP1 human monocytic leukemia cells treated with TPA. THP1 cells are maintained in a culture of DMEM/F-12 with 10% FCS and stimulated to produce pro-MMP9 with TPA (1 nM) in serum-free medium for 48 h. All purification procedures are carried out at 4° C. The 1 liters of culture medium is concentrated to 100 ml by Centricon (Amicon) and applied to a column (1×8 cm) of gelatin-sepharose (Pharmacia) equilibrated with 50 mM Tris-Cl (pH=8.0), 300 mM NaCl. The fraction containing pro-MMP-9 is eluted with 10% DMSO in 50 mM Tris-Cl (pH=8.0), 300 mM NaCl, then dialyzed against 50 mM Tris-Cl (pH 7.5), 150 mM NaCl. The fraction is concentrated by Centricon and subjected to column chromatography of Sephadex G200 (2×20 cm) equilibrated with 50 mM Tris-Cl (pH=7.5) containing 150 mM NaCl. The purified Pro-MMP9 is stored at −80° C. as a stock and the necessary amount of pro-form is used for activation. Pro-MMP9 is activated with 1 mM aminophenyl mercury acetate (APMA, ICN Pharmaceuticals) in 50 mM Tris-Cl (pH=7.5) containing 150 mM NaCl, 10 mM CaCl2 and 0.05% Brij-35 (MMP Assay Buffer) for 18 h at 37° C., and the APMA is removed by extensive dialysis against MMP Assay Buffer. […]
The activated MMP-9 (82 kDa) is then used to screen compounds. […] The increase of fluorescence is monitored at 460 nm with excitation at 355 nm. […]

T1 sequence (P14780 107-707 limits assumed): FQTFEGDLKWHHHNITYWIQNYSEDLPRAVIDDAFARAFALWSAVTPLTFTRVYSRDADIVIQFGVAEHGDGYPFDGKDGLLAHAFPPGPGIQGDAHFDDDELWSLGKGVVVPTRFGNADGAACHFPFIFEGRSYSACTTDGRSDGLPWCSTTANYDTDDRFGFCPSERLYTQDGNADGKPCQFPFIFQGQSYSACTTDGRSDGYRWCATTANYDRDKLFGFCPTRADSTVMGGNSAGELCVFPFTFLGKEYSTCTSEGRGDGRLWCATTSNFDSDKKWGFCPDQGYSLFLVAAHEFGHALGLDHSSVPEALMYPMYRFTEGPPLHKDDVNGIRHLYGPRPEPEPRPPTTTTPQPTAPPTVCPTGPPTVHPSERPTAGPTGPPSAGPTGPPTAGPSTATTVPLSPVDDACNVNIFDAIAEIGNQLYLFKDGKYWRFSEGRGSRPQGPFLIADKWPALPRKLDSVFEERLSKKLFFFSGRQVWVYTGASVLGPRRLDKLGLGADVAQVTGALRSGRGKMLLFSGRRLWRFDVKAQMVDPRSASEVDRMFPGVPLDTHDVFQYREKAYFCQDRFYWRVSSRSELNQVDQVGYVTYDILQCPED

Take `CN(C)c1ccc(CN(CC(=O)NO)S(=O)(=O)c2ccc(OCC3CC3)cc2)cc1` [Example 2, 2-[(4-Cyclopropylmethoxy-benzenesulfonyl)-(4-dimethylamino-benzyl-amino]-N-hydroxy-acetamide HCl salt]: the half-inhibitory concentration (IC50) stood at 2.57 ± 0.27 nM.

In general, IC50 refers to the concentration that inhibits the measured activity by half. Low values mean greater potency, high ones weaker potency.
